In a melting point compilation (Tetko et al.; mined from patent text by program, amines drawn as free bases though some values may be those of a salt):

SMILES	melting point [°C]
COc1cc(C#N)ccc1OCCCBr	99 to 101
Cc1ccc(C)c(-c2ccc(C#N)c(C)c2)c1	96 to 97
COC(=O)C(CCSC)NC(=O)c1ccc([N+](=O)[O-])cc1-c1cc(C)cc(C)c1 (configuration not stated)	122 to 124
CCn1ccc2c(c1=O)CN=C(N1CCNCC1)N2	117 to 120
COc1ccc(OC2OC(COCc3ccccc3)C(OCc3ccccc3)C(O)C2OCc2ccccc2)cc1 (configuration not stated)	84 to 86
COc1cc(OCc2ccncc2)ccc1/C=C/c1cc(/C=C/c2cccc3cc[nH]c23)n[nH]1	201 to 206
Cc1c([N+](=O)[O-])ccc2c1ccn2C	120 to 123
O=C1Nc2ccc(Cl)cc2C1(Cl)c1cccc2c1OCO2 (configuration not stated)	241
CS(=O)(=O)Oc1ccc(-c2c3ccccc3c(C(F)(F)F)c3sc4ccccc4c23)cc1	215 to 216
CCc1nc2ccc(OC(F)(F)F)cc2[nH]1	135 to 137
CC(=O)N[C@H]1CCC(=O)N2CCC[C@@H](C(=O)O)N2C1=O	> 250
O=C1CCCNc2ccc(Br)cc21	99 to 101
N#Cc1cc(C(=O)NNC(=O)c2occc2-c2ccccc2O)ccc1O	135 to 140
CN(C)CCN1C(=O)c2ccc3[nH]c4ccc(N)cc4c3c2C1=O	217 to 218
CCCCCCc1cnn(-c2ccccn2)c1O	37 to 38
CNC1C=CC(C(C)C)C2CNCC12 (configuration not stated)	76 to 81
Cc1c(Br)cccc1NS(=O)(=O)c1cc(S(=O)(=O)Nc2cccc(Br)c2C)c2cc(O)ccc2c1	129 to 131
Cc1ccc2c3c(c(=O)oc2c1)CNCC3	128 to 130
O=C1CC2(CCCC2)c2ccc([N+](=O)[O-])cc21	104
CC1(C)C(Cl)(Cl)C1(Cl)C(=O)O (configuration not stated)	148 to 150
COc1ccccc1SCCCCCC(=O)O	81 to 82
N#CC1=C(Nc2ccc(Br)cc2)CCC1	136 to 138
CCOC(=O)CNC(=O)Oc1c(Cl)cc(Cl)c2cccnc12	120

SMILES	melting point [°C]
CCOC(=O)COc1c(C)cc(C)c2c1CC(Br)C2=O (configuration not stated)	71 to 73
C=CCn1[nH]c2cc(OC)ccc2c1=O	126
CCOC(=O)C1=Cc2cc(C#N)ccc2OC1C(F)(F)F (configuration not stated)	102 to 106
COc1cc(Nc2nc3cccc(-c4cccc(CN)c4)c3o2)cc(OC)c1OC	145 to 150
COc1cc(OC)c2c(=O)oc(=O)[nH]c2c1	287 to 293
N#CC=C1CC2(CCCC2)c2ccccc21	82
COc1cccc(-n2c(=O)n(OCc3ccccc3)c(=O)c3cc(F)c(F)cc32)c1	157 to 158
COc1cc(=O)[nH]c2cc(O)ccc2c1=O	273 to 275
N#CN=C1CCCCN1C1=CC(CF)(CF)Oc2ccc(C(F)(F)C(F)(F)F)cc21	196 to 197
CC=CCn1c(C)c(C)c2cnnc(OCc3cccnc3)c21	80 to 81
C=CCc1cc2c(c(CC=C)c1O)CCC(=O)N2	118 to 119
N=C(N)NCCCOc1ccc2c(c1)CC(CCC(=O)O)C(=O)N2 (configuration not stated)	168 to 172
Cc1cc(-c2ccc(Cl)cc2)cn2c(-c3nc(-c4ccc(S(N)(=O)=O)cc4)no3)cnc12	311
CCCCN1C(=O)C(=O)C(C)=C(C#N)C1=O	134 to 135
Nc1ccc(F)cc1-c1ccc(Cl)c(Cl)c1	58
N#Cc1ccc(C(Cc2ccc(OC(F)(F)F)cc2)Cn2cncn2)cc1 (configuration not stated)	70
c1ccc2c(OCCNCCCc3c[nH]c4ccccc34)cccc2c1	119 to 120
O=C(O)C(=NO)C(c1ccc(OCc2ccc3ccc(Cl)cc3n2)cc1)c1ccc(OCc2ccc3ccc(Cl)cc3n2)cc1	201 to 202
O=C(OCCCc1ccc(OCc2ccc(Cl)cc2)cc1)c1cccnc1	109 to 110
O=C1OC[C@H]2[C@@H]1N(Cc1ccccc1)C(=O)N2Cc1ccccc1 (relative stereo)	106 to 109
CC(C)C[C@@H](OS(=O)(=O)c1ccc([N+](=O)[O-])cc1)C(=O)O	60 to 62
CCOC(=O)c1c(C(F)(F)F)nc(C(F)(F)Cl)c(C(=O)OC)c1NN1CCCC1	101 to 103
Cc1[nH]c2ccnn2c(=O)c1CCO	225 to 226

Results, then the compound that gave them:

melting point [°C]	SMILES
155 to 156	CCCCOCCOc1ccc(-c2ccc(N3CCCC3)c(C=C(CC)C(=O)O)c2)cc1
215 to 218	CCN1c2ncccc2C(=O)N(C)c2ccc(O)nc21
220 to 222	COc1ccc(-c2c(NCCc3cccc(C(F)(F)F)c3)c(=O)c2=O)cc1
138 to 140	O=C1CCCc2nc3ccccc3c(NCc3cccc(Cl)c3)c21
144	CC1C(=O)N(c2ccc(Cl)cc2)C(=S)N1c1ccc(Cc2ccccc2)cc1 (configuration not stated)
59 to 66	CC(C)C[C@H](NC(=O)OC(C)(C)C)C(=O)N1CCN(C(c2ccc(F)cc2)c2ccc(F)cc2)CC1
90.5 to 91.8	CC(C)(C)C(=O)Oc1ccc(OC(=O)C(C)(C)C)c(C(=O)OCc2ccccc2)c1
168 to 170	OCc1cn(-c2cccc3cccnc23)cn1
143 to 146	CCCc1nn(C)c2c(=O)[nH]c(-c3ccccc3OCC)nc12
190	CC(C)(C)OC(=O)CN1CCOc2ccc([N+](=O)[O-])cc2C1=O
163	CS(=O)(=O)OCC(Oc1ccc(F)c(C(N)=O)c1F)c1nc(-c2ccc(C(F)(F)F)cc2)c(Cl)o1 (configuration not stated)
80 to 82	Cc1c(C)c(N(C)C(=O)CC(C)(C)C)c(C)c2c1OCC2c1ccc(C(C)C)cc1 (configuration not stated)
216	O=C(Nc1nonc1-c1ccc(Cl)cc1)NC1CCCCC1
165	CN1C(=O)CCC(C)(C)c2cc(Nc3ncc(Cl)c(N[C@@H]4CCCC[C@H]4NS(C)(=O)=O)n3)ccc21
178 to 180	CC(C)(C)OC(=O)N1CCN(c2ccc(NC=O)nc2)CC1
173 to 175	COC(=O)C1=C(O)c2ccccc2S(=O)(=O)N1
146 to 149	CCOc1ccc2c(c1)n(CCN1CCOCC1)c(=O)n2S(=O)(=O)c1ccc(OC)cc1OC
70	CN(Cc1ccccc1)C1c2ccccc2CCCC1O (configuration not stated)
110 to 112	CCc1cccc(C)c1CNc1cc(Br)cc2c1nc(COC)n2C

melting point [°C]	SMILES
164 to 165	CCCC(=O)Cc1ccc(C(=O)Nc2ccc3cc(CN4CCCCC4)cnc3c2C)cc1
145 to 150	CCCCC(=O)Nc1ccc(-c2ccc(-c3ccccc3Cl)n2Cc2cccc(N)n2)cc1
240 to 242	CCCN(CCC)c1nc2ccccc2n2cnnc12
29 to 30	C=C(C)COc1ccc(C(=O)C=Cc2c[nH]c3ccccc23)c(O)c1
240 to 242	O=C(O)c1ccc(Cn2c(=O)sc3ccc(C#CCc4ccccc4)cc3c2=O)cc1
209 to 210	O=C(c1cccs1)c1cnn2c(-c3cccc(NC(=O)C4CCCC4)c3)ccnc12
153 to 154	c1ccc2c(c1)N(CC1CCCCC1)CC21COc2cc3c(cc21)OCO3 (configuration not stated)
168 to 170	CC(C)n1cc(C=O)c(-c2ccc([N+](=O)[O-])o2)n1
222 to 226	Nc1nc2c(ncn2COCCOC(=O)c2ccccc2)c(=O)[nH]1
258 to 260	CC(C)(C(=O)O)n1c(=O)[nH]c2cccc(F)c2c1=O
56 to 58	CCc1cc2c(Sc3ccc(C)cc3)ncnc2s1
242 to 243	O=C(Nc1ccc(C(F)(F)F)cc1)C1=NN(c2ccc(Cl)c(Cl)c2)C(c2ccc(F)cc2)C1 (configuration not stated)
216 to 217	C=CCn1c(C)nc2c3c(c(C(=O)OC)cc21)C(=O)CC1(Cc2ccccc2C1)N3
75 to 77	O=C1CCCCC1=CC(=O)c1ccccc1
156 to 158	CC(=Cc1ccccc1)c1ccc2c(c1)C(C)(C)CCS2(=O)=O
146	CC(C)c1nn2ccccc2c1S(=O)(=O)c1ccc(O)cc1
83 to 84	Cc1ccc(S(=O)(=O)OC2CC(=O)N(Cc3ccccc3)C2)cc1 (configuration not stated)
140 to 142	CCOC(=O)c1cc2cc(O)ccc2n1C
52	CN(C)Cc1ccc(SC2CCNCC2)cc1

melting point [°C]	SMILES
174 to 176	CC1=C(c2ccnc3ccccc23)SCC(=O)N1
182 to 184	Cc1ccc(F)c(-c2cc(Nc3ccnc4cn(CC(O)CO)nc34)ccn2)n1 (configuration not stated)
118 to 120	O=C(O)COc1cc(Cl)ccc1C(=O)NCCN1CCN(Cc2ccc(Cl)c(Cl)c2)CC1
191	COc1cc(-c2nc3ccc(O)cc3n2Cc2ccccc2C(F)(F)F)cc(OC)c1OC
197	Cc1ccc(-c2cc(C(F)(F)F)n3cnc(C#N)c3n2)cc1
181 to 183	CCOC(=O)Cc1sc(Sc2ncccc2C(=O)OCC)nc1C
138 to 144	Cc1cccc(-c2[nH]c(C(C)C)nc2-c2cccc(-c3ccc(C(N)=O)cn3)c2)n1
208 to 210	CCN(CC)CCN1C(=O)Nc2ccccc2C1c1cccc(O)c1 (configuration not stated)
203	COc1ccc(CNc2nc(N3CCC(C(=O)O)CC3)nc3sc(C(F)(F)F)cc23)cc1OC
222 to 224	O=C(O)c1ccc(-n2ccc3ccccc32)cc1
165 to 167	CC(C)(C)OC(=O)N1CCN(c2ccc3nc(-c4cccs4)cn3n2)CC1
138 to 140	COc1ccc2cc(-c3ccnc(NCCc4ccc(OC)c(OC)c4)n3)cc(N3CCNCC3)c2c1
210 to 214	O=C(O)c1ccc(C(=O)N2Cc3cccn3Cc3ccccc32)cc1
170 to 172	CC(C)c1ccc(CCNc2ncnc3c(F)cccc23)cc1
139 to 142	O=C(NCC12CCCN(CCC1)C2)c1c[nH]c2ccccc12
135	CC1Cc2cc(NS(C)(=O)=O)ccc2OC12CCC(N1CCc3ccccc3C1)CC2 (configuration not stated)
104 to 105	CC(C)CC1(C(CC(C)Sc2cccs2)C(=O)NO)CCN(CCc2ccccc2)C1=O (configuration not stated)
220	Cc1ccnc(C(=O)c2[nH]c3cc(Cl)c(F)cc3c2CC(=O)O)c1
